Consider three substances from paper PMC7966987, “Insights into the catalytic properties of the mitochondrial rhomboid protease PARL” (The Journal of Biological Chemistry, 2021).

Holding throughout (assay type): biochemical
The target of assay [1] is T1, human PARLΔ55 (Homo sapiens, UniProt Q9H300).
T1 construct: to generate full-length (FL) starting at residue 55 or the β-cleavage form truncated at residue 77; GFP-hexahistidine (behind a TEV cleavage site) (C, cleaved yes); made in house; host or cells: Pichia pastoris
T1 sequence (Q9H300 56-379): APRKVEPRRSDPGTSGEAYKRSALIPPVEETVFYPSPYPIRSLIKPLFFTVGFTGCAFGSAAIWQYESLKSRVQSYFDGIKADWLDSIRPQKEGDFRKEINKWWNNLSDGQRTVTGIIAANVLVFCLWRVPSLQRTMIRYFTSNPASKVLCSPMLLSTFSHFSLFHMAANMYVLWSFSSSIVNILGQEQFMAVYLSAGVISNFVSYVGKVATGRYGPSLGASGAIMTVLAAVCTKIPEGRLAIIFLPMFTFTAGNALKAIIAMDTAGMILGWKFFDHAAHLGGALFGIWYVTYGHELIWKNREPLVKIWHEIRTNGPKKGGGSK
Put plainly: IQ-peptide substrate cleavage kinetics, full-length PARLΔ55 in detergent. As to conditions: for Km / kcat (turnover rate) / kcat/KM (catalytic efficiency): PARLΔ55 0.8 μM in 0.1% DDM with CL, 50 mM Tris-HCl pH 7.0, 150 mM NaCl, 10% glycerol, 5% DMSO, 37 °C, fluorescence, mean ± SEM. The source says:
To further evaluate the cleavage of other known substrates of PARL, we adopted a more facile system to examine cleavage of multiple substrates and generated internally quenched (IQ) peptide substrates ([25], [36], [37], [38]) based on the amino acids flanking the PARL cleavage sites of PINK1 ([39]), PGAM5 ([8]), and Smac/Diablo ([11]). […] The assay allowed us to determine the catalytic parameters for the three primary PARL substrates and examine the substrate specificity (Fig. 2, Tables S2–S4).
(§1) Assays with FRET-PINK1^70–134 were conducted as previously described ([26]). For EDANS/Dabcyl 10-mer IQ peptides (PINK1, PGAM5, Smac/Diablo), lyophilized peptides were initially dissolved in DMSO to obtain a stock solution. The IQ peptide substrates in a concentration range of 0.1–70 μM were incubated with activity assay buffer (50 mM Tris-HCl pH 7.0, 150 mM NaCl, 10% glycerol, 0.1% DDM) in a 384-well black-bottomed plate at 37 °C for 30 min in a multiwell plate reader (SynergyMx, BioTek). For all concentrations of IQ peptide, the DMSO was kept constant at 5%. Following preincubation, PARL was added to a final concentration of 0.8 μM to initiate the cleavage reaction. Fluorescence readings were taken every 3 min over a 3 h time course at ƛex = 336 nm and ƛem = 490 nm. The initial velocity was determined from the fluorescence readings over the time course. For each substrate concentration, a no-enzyme control was subtracted to eliminate background fluorescence changes not related to substrate cleavage. Relative fluorescence units were converted to concentration (μM) by determining the maximum change in fluorescence observed for each substrate concentration when fully digested. GraphPad Prism software was used for Michaelis–Menten analysis of kinetic curves. All kinetic data were obtained using at least three biological replicates (different enzyme preparations) with technical duplicates for each experiment. For kinetic measurements in detergent with all three substrates, the activity assays were repeated at least five times. In addition, after each protease purification, the quality control of purified PARL was controlled by measuring its enzymatic activity. Minimum of three experimental replicates with two technical replicates were used for data analysis.

The target of assay [2] is T1, human PARLΔ55. Nature of the assay: IQ-peptide substrate cleavage kinetics, PARLΔ55 in proteoliposomes. Particulars: PARLΔ55 in PLs (E. coli polar lipids), 50 mM Tris-HCl pH 7.0, 150 mM NaCl, 10% glycerol, no DDM, 37 °C; mean ± SEM.
Source text: (§2) To assess the activity of recombinant PARL toward known substrates in a lipid bilayer, full-length and β-truncated PARL were reconstituted in proteoliposomes (PLs) using Escherichia coli lipids that closely resemble the composition of the IMM ([31]). We determined that the EDANS/Dabcyl - FRET tags prevented incorporation of the substrates into PL; however, the substrate could still be cleaved since the active site is proposed to be near the lipid/water interface ([40], [41]) analogous to bacterial rhomboid proteases (Fig. 1). To calculate the specific activity of the protease, we quantified the fraction of PARL in the PLs with an outward facing active site using a membrane […] activity-based TAMRA-labeled fluorophosphonate probe ([42]). […] These values were used to calculate specific activity of the PARL protease. Next, we compared cleavage of three IQ-peptide substrates by reconstituted full-length mature PARLΔ55 and the β-truncated form, PARLΔ77 (Fig. 3, Tables S5 and S6).
as §1
(§3) E. coli polar lipids (Avanti), 400 μg in chloroform, were dried under nitrogen stream in a glass tube to yield a thin film of lipid. The tube was incubated overnight in a desiccator to completely remove all traces of solvent. In total, 50 μl of water and DDM detergent was added to the lipid film for resuspension at room temperature for 10 min, followed by the addition of purified PARL (400 μg) in 50 mM Tris-HCl, pH 8.0, 150 mM NaCl, 20% glycerol, 0.1% DDM, to yield the final weight ratio of 1 PARL:1 lipid:2 detergent. The detergent was slowly removed by the addition of SM2 Biobeads (Bio-Rad) while stirring on ice for 6 h to allow for the generation of proteoliposomes (PL); the process was controlled by the regimen of Biobead addition. To purify the PL, 50%:20% sucrose density gradient ultracentrifugation was used. A TAMRA probe (ThermoFisher) was used to determine the orientation of reconstituted PARL, which specifically and covalently labels serine residues of an enzymatically active serine protease. In total, 2 μM of TAMRA probe was added to PL samples and incubated for 1 h, allowing the TAMRA probe to label only the outward-facing accessible active sites. […]

The test system of a further assay is human PARLΔ77. Put plainly: IQ-peptide substrate cleavage kinetics, PARLΔ77 in proteoliposomes. As to conditions: for fold change Km/kcat, PARLΔ77/PARLΔ55 / fold change kcat, PARLΔ77/PARLΔ55: PARL in PLs; for turnover / proteolysis with PARLΔ77 compared with PARLΔ55: in PL.
Source text: as §2, §1, §3

For orientation: Km means the concentration of substrate that gives half-maximal velocity. As to “(DABCYL)-AVFLAFGLGL-Glu(EDANS) [IQ-PINK1^99–108, internally quenched DABCYL/EDANS peptide substrate based on PINK1 PARL cleavage site]”, on human PARLΔ55 [1], the “substrate turnover with PARLΔ55 compared with PARLΔ77” value was “significantly lower substrate turnover”, the Km was determined as 1.9 ± 0.4 µM, the “kcat (turnover rate)” value is 0.000117 ± 8.3e-06 s⁻¹ and the “kcat/KM (catalytic efficiency)” value is 61.1 ± 22 M⁻¹ s⁻¹. For the same substance, on human PARLΔ55 [2], the Km amounted to 13 ± 2 µM, the “kcat (turnover rate)” value worked out at 0.0025 ± 0.00017 s⁻¹ and the “kcat/KM (catalytic efficiency)” value came to 190 ± 28 M⁻¹ s⁻¹. In the assay with human PARLΔ77, the “fold change Km/kcat, PARLΔ77/PARLΔ55” value is 5 fold and the “fold change kcat, PARLΔ77/PARLΔ55” value amounted to 3 fold.

Take “(DABCYL)-AVFLSAVAVG-Glu(EDANS) [IQ-PGAM5^20–29, internally quenched DABCYL/EDANS peptide substrate based on PGAM5 PARL cleavage site]”: at human PARLΔ55 [1], the “substrate turnover with PARLΔ55 compared with PARLΔ77” value was “significantly lower substrate turnover”, the Km stood at 0.47 ± 0.07 µM, the “kcat (turnover rate)” value amounted to 0.000128 ± 5.6e-06 s⁻¹ and the “kcat/KM (catalytic efficiency)” value came out at 278 ± 83 M⁻¹ s⁻¹. Also, on human PARLΔ55 [2], the Km turned out to be 1.3 ± 0.2 µM, the “kcat (turnover rate)” value is 0.00133 ± 0.000333 s⁻¹ and the “kcat/KM (catalytic efficiency)” value came to 1000 ± 170 M⁻¹ s⁻¹. Moreover, in the assay with human PARLΔ77, the “fold change Km/kcat, PARLΔ77/PARLΔ55” value came to 7 fold and the “fold change kcat, PARLΔ77/PARLΔ55” value is 4 fold.

For the substance “(DABCYL)-GVT LCAVPIA-Glu(EDANS) [IQ-Smac/Diablo^51–60, internally quenched DABCYL/EDANS peptide substrate based on Smac/Diablo PARL cleavage site]”, at human PARLΔ55 [1], the Km is 6 ± 1 µM, the “kcat (turnover rate)” value was 0.000361 ± 2.8e-05 s⁻¹ and the “kcat/KM (catalytic efficiency)” value is 83 ± 28 M⁻¹ s⁻¹. In addition, on human PARLΔ55 [2], the Km was found to be 3.9 ± 0.7 µM, the “kcat (turnover rate)” value turned out to be 0.00153 ± 8.3e-05 s⁻¹ and the “kcat/KM (catalytic efficiency)” value was found to be 389 ± 83 M⁻¹ s⁻¹. Moreover, in the assay on human PARLΔ77, the “fold change Km/kcat, PARLΔ77/PARLΔ55” value is on record as 2 fold and the “fold change kcat, PARLΔ77/PARLΔ55” value worked out at 10 fold. In addition, the “turnover / proteolysis with PARLΔ77 compared with PARLΔ55” value in the assay on human PARLΔ77 (listed as IQ-Smac/Diablo) is reported as “increase in proteolysis”. Further, the “turnover / proteolysis with PARLΔ77 compared with PARLΔ55” value in the assay on human PARLΔ77 (listed as Smac/Diablo) was “significantly enhanced”.
